The subject of the assay is Human RSV-A (“Long” strain). The assay can be described thus: RSV in vitro cytoprotection assay (CPE, ATPlite) in HEp-2 cells. The format is cell-based. Conditions: human respiratory syncytial virus, HEp-2; control compound of the RSV assay; read-out: EC50. In a few lines:
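HEp-2 cells (8,000/well) given 2-fold serial compound dilutions in duplicate, then infected with sucrose-stabilised RSV-A Long stock. After 4 days, cell viability read by ATPlite luminescence, with a parallel uninfected plate for cytotoxicity. EC50 binned A<0.01 μM, B 0.01-0.05 μM, C>0.05 μM.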
Background: ATP-based viability assays read luminescence as a measure of living cells.

For one molecule, EC50 results are on record in patent publication US11091501B2, “Heterocyclic compounds as RSV inhibitors” (Enanta Pharmaceuticals, Inc., priority 2017, dated 2021).

SMILES strings stand for the structures.

As for `O=C(Nc1ccccc1F)N[C@H]1N=C(c2ccccc2)c2ccccc2NC1=O` [RSV-604, reference compound], the concentration for a half-maximal effect (EC50) (as a rule, the midpoint of the concentration-response curve) is around 2.4 µM.
